Patent US9221746B2, “Homo- and hetero-polyamino-acid derivatives of fullerene C60, method for producing same, and pharmaceutical compositions based on said derivatives” (priority 2011, dated 2015)
Read-outs that look alike come from different tables or passages of the source. Marks after values point to notes of the source that are not given here.

Key:
[1] = system: breast adenocarcinoma Ca-755; assay type: in vivo, mice; conditions: for ILT, %: increase in lifetime compared to the control
Method: (§1) These studies were carried out at the Institute for Toxicology, St. Petersburg, 2006, according to “Guidelines for the Study of Antitumor Activity of Pharmacological Agents” (“Manual on Experimental (Preclinical) Study of New Pharmacological Agents,” Ministry of Public Health of the Russian Federation, Remedium, Moscow, 2000, pp. 319-325).
(§2) The L1210 leukemia, breast adenocarcinoma Ca-755, and Lewis carcinoma (3LL) tumor cell strain were purchased from the Petrov Research Institute for Oncology, the Ministry of Public Health of the Russian Federation (St. Petersburg).
C 57 BL/6J line male mice with transplanted Ca-755 cells. Mouse ages: 6 to 8 weeks; body weights: 19 to 25 g.
(§3) The antitumor effect was ascertained through the following parameters: • ascite accumulation as animal body weight gain; • the lifetime of animals; and • tumor growth. The larger dimension of the tumor (length) and the smaller dimension normal thereto (width) were measured. The tumor volume was calculated, and the inhibition of tumor growth was calculated by a formula. The ascertainment criterion was the day when each individual tumor reached a volume of 500 mm^3.

[2] = system: Lewis carcinoma (3LL); experiment: Transplantable Lewis carcinoma (3LL) in mice; assay type: in vivo
Method: as §1, §2
C 57 BL/6J line male mice with transplanted 3LL cells. Mouse ages: 6 to 8 weeks; body weights: 18 to 24 g.
as §3

[3] = system: Herpes simplex virus, type 1, Lg strain; experiment: Anti-herpetic activity in the Vero cell culture; assay type: cell-based; conditions: for Optical density: MTT assay
[4] = system: type 1 human immunodeficiency virus; experiment: Antiviral activity on HIV-1 infected human cell model; assay type: cell-based; conditions: for Cell survival rate, % / Number of cells × 10^3/mL / CPE/syncytia (+): HIV-1 infected cells; for CPE/syncytia (+): four-plus system
[5] = system: human lymphoblastoid cells; experiment: Cytotoxicity in human lymphoblastoid cells model; assay type: cell-based

Fullerene Poly(Aminocaproic Acid) of Formula C60(H3){NH(CH2)5COO—}3{NH3^+(CH2)5COOH}3 [Agent No. 1]
ALT in days, M ± m ([1]; 100 mg/kg): 71.9 ± 2.58 days | ILT, % ([1]; 100 mg/kg): 89.71% | ALT in days, M ± m ([1]; 100 mg/kg, listed as agent): 71.9 ± 2.58 days | average lifetime ([1]; 200 mg/kg): 73.4+0.92 days | percent increase in lifetime compared to the control ([1]; 200 mg/kg): 93.67% | ALT in days, M ± m ([1]; 250 mg/kg): 73.40 ± 0.92 days | ILT, % ([1]; 250 mg/kg): 93.67% | intoxication signatures ([1]; mouse, in vivo): No intoxication signatures were detected | Day when the tumor reaches a volume of 500 mm³ ([2]; 100 mg/kg): 21.3 ± 1.21 days | Lifetime, M ± m ([2]; 100 mg/kg): 55.92 ± 0.98 days | day post transplantation when the first tumors were observed ([2]; 100 mg/kg): 7 days | Number of large (>3 mm) metastases in lungs, M ± m ([2]; 100 mg/kg (n = 12)): 5.8 ± 1.91 | Number of metastases in lungs, M ± m ([2]; 100 mg/kg (n = 12)): 53.5 ± 11.23 | Weight of lungs, mg M + m ([2]; 100 mg/kg (n = 12)): 491.9 ± 63.72 mg | percent inhibition (average tumor volume) compared to the control group ([2]; 100 mg/kg, day 10): 71.77% | percent inhibition (average tumor volume) compared to the control group ([2]; 100 mg/kg, day 17): 58.5% | Day when the tumor reaches a volume of 500 mm³ ([2]; 100 mg/kg, versus control): 27.3%* | Lifetime, Percent increase ([2]; 100 mg/kg, versus control): 70.42%* | Day when the tumor reaches a volume of 500 mm³ ([2]; 250 mg/kg): 20.5 ± 1.20 days | Lifetime, M ± m ([2]; 250 mg/kg): 56.38 ± 0.68 days | day post transplantation when the first tumors appeared ([2]; 250 mg/kg): 8 days | Number of large (>3 mm) metastases in lungs, M ± m ([2]; 250 mg/kg (n = 13)): 5.7 ± 1.54 | Number of metastases in lungs, M ± m ([2]; 250 mg/kg (n = 13)): 55.8 ± 11.60 | Weight of lungs, mg M + m ([2]; 250 mg/kg (n = 13)): 505.4 ± 68.82 mg | percent inhibition (average tumor volume) compared to the control group ([2]; 250 mg/kg, day 10): 84.37% | percent inhibition (average tumor volume) compared to the control group ([2]; 250 mg/kg, day 17): 54.2% | Day when the tumor reaches a volume of 500 mm³ ([2]; 250 mg/kg, versus control): 22.9%* | Lifetime, Percent increase ([2]; 250 mg/kg, versus control): 71.85%* | increase of the average lifetime against the control group ([2]; both doses): approximately 70% | protection of cells from the cytodestructive effect of the virus ([3]; 100 TCD50, agent 60 minutes prior to infecting, all concentrations from 5.0 mcg/mL and higher): completely protects | protection of cell culture from the cytodestructive effect of the virus ([3]; 1000 TCD50/0.2 mL, infected 60 minutes post inserting the agent): complete protection | Optical density ([3]; 100 TCD50, 5.0 mcg/mL): 1.110 ± 0.08 | Optical density ([3]; 100 TCD50, 10.0 mcg/mL): 1.015 ± 0.07 | Optical density ([3]; 100 TCD50, 50.0 mcg/mL): 1.153 ± 0.06 | Optical density ([3]; 100 TCD50, 100.0 mcg/mL): 1.79 ± 0.05 | Optical density ([3]; 1000 TCD50, 5.0 mcg/mL): 1.027 ± 0.04 | Optical density ([3]; 1000 TCD50, 10.0 mcg/mL): 1.021 ± 0.04 | Optical density ([3]; 1000 TCD50, 50.0 mcg/mL): 1.033 ± 0.03 | Optical density ([3]; 1000 TCD50, 100.0 mcg/mL): 1.083 ± 0.01 | Cell survival rate, % ([4]; 0.5 mcg/mL): 18% | Number of cells × 10^3/mL ([4]; 0.5 mcg/mL): 33 × 10^3/mL | CPE/syncytia (+) ([4]; 0.5 mcg/mL): 4.0 (+) | Cell survival rate, % ([4]; 1.0 mcg/mL): 26% | Number of cells × 10^3/mL ([4]; 1.0 mcg/mL): 495 × 10^3/mL | CPE/syncytia (+) ([4]; 1.0 mcg/mL): 4.0 (+) | Cell survival rate, % ([4]; 5.0 mcg/mL): 98% | Number of cells × 10^3/mL ([4]; 5.0 mcg/mL): 633 × 10^3/mL | CPE/syncytia (+) ([4]; 5.0 mcg/mL): 0 (+) | Cell survival rate, % ([4]; 10 mcg/mL): 98% | Number of cells × 10^3/mL ([4]; 10 mcg/mL): 600 × 10^3/mL | CPE/syncytia (+) ([4]; 10 mcg/mL): 0 (+) | EC50 (50% effective concentration) ([4]; type 1 human immunodeficiency virus): 0.9 µg/mL | Cell survival rate, % ([5]; 0.5 mcg/mL): 95% | Number of cells × 10^3/mL ([5]; 0.5 mcg/mL): 833 × 10^3/mL | Cell survival rate, % ([5]; 1.0 mcg/mL): 94% | Number of cells × 10^3/mL ([5]; 1.0 mcg/mL): 833 × 10^3/mL | Cell survival rate, % ([5]; 5.0 mcg/mL): 98% | Number of cells × 10^3/mL ([5]; 5.0 mcg/mL): 799 × 10^3/mL | Cell survival rate, % ([5]; 10.0 mcg/mL): 94% | Number of cells × 10^3/mL ([5]; 10.0 mcg/mL): 767 × 10^3/mL | Cell survival rate, % ([5]; 100 mcg/mL): 95% | cytotoxic effect on cells ([5]; concentrations of 0.5 to 10 mcg/mL): no cytotoxic effect
